Measured values from patent US11047847B2, “Methods and apparatus for modeling cancer metastasis in vitro” (Wake Forest University Health Sciences, priority 2015, dated 2021).
Entries after “also recorded” stand apart in the source; their conditions may differ.

Experiments:
[1] = tested on: HCT116 organoids (KRASMT); assay: MTS assay of mitochondrial metabolism in CRC organoids in microfluidic devices; format: cell-based, human; settings: 48-hour treatment
From the text: (§1) Precision medicine—identifying treatments for patients based on their tumor genetic profiles—has gained significant traction. […] In a non-limiting example, colorectal cancer (CRC) organoids were created by encapsulating CRC cells (Caco2 and SW480—WT; HCT116—KRASMT; and HT29—BRAFMT) in hyaluronic acid and gelatin hydrogels in microfluidic devices. Each type of CRC organoid was then subjected to a panel of clinical CRC drugs: 5-FU or oxaliplatin (1st line drugs effective in WT tumors), Tramatinib (an EGFR pathway drug effective in KRASMT tumors), and sorafenib or regorafenib (EGFR pathway drugs effective in BRAFMT tumors). Following 48-hour treatments, organoids were assessed for mitochondrial metabolism by MTS assays. There appeared to be clear differences in drug responsiveness that correlated with EGFR genetic states.

HT29 organoids (BRAFMT) = assay: as above; format: cell-based; settings: 48-hour treatment
From the text: as §1

HCT-116 cells = assay: Drug treatment and assessment of migration, multi-zone tumor organoid migration model (soft tumor, stiff tissue); format: cell-based, human; settings: 50 μM Marimastat in DMEM vs no drug control
Experimental: To assess the influence of the physical tumor microenvironment parameters on tumor cell migration, a variation of the organoids described above were […]. Instead of encapsulating homogenously mixed cells throughout the hydrogel, 3-D organoid volumes were formed first, after which a volume of 5 μL HCT-116 cells in hydrogel precursor solution was pipetted into the center of the organoid space and polymerized in place by a 1 second exposure to UV light. […] Organoid and tumor zone elastic moduli were modulated by swapping of the linear PEGDA crosslinker molecule (3.4 kDa MW) with a 4-arm PEG-acrylate molecule (10 kDa MW, Creative PEGWorks, Winston-Salem, N.C.) or 8-arm PEG-acrylate crosslinker molecule (10 kDa MW, Creative PEGWorks) to generate stiffer hydrogels. […] Fluorescent and brightfield overlay images were captured on day 3, day 7, and day 10, from which distances of migration of cells out of the tumor were determined over time using ImageJ software. […]

Caco2 organoids (WT) = assay: MTS assay of mitochondrial metabolism in CRC organoids in microfluidic devices; format: cell-based; settings: 48-hour treatment
From the text: as §1

SW480 organoids (WT) = assay: as above; format: cell-based; settings: 48-hour treatment
From the text: as §1

CNC(=O)c1cc(Oc2ccc(NC(=O)Nc3ccc(Cl)c(C(F)(F)F)c3)cc2)ccn1 [sorafenib]
drug sensitivity (mitochondrial metabolism by MTS) [1]: particularly sensitive

CNC(=O)c1cc(Oc2ccc(NC(=O)Nc3ccc(Cl)c(C(F)(F)F)c3)c(F)c2)ccn1 [regorafenib]
drug sensitivity (mitochondrial metabolism by MTS) (HT29 organoids (BRAFMT)): slight sensitivity

CNC(=O)C(NC(=O)C(CC(C)C)C(O)C(=O)NO)C(C)(C)C (stereo not shown) [Marimastat, N-[2,2-dimethyl-1-(methylcarbamoyl)propyl]-2-[hydroxy-(hydroxycarbamoyl)methyl]-4-methyl-pentanamide]
migration distance of HCT-116 cells out of the tumor (HCT-116 cells; day 3, day 7 and day 10, length in pixel counts, p<0.05): significantly prevented migration | tumor cell invasion / outward growth of HCT-116 aggregates into the surrounding 3-D environment (HCT-116 cells; overlay images, day 10): reduce tumor cell invasion; also recorded: prevents outward growth of aggregates

O=c1[nH]cc(F)c(=O)[nH]1 [5-FU]
drug sensitivity (mitochondrial metabolism by MTS) (Caco2 organoids (WT)): particularly sensitive | drug sensitivity (mitochondrial metabolism by MTS) (SW480 organoids (WT)): particularly sensitive | drug sensitivity (mitochondrial metabolism by MTS) [1]: particularly sensitive
